From patent publication US12077503B2, “Substituted cyclic amides and their use as herbicides” (FMC CORPORATION, priority 2015, dated 2024)
Read-outs that look alike come from different tables or passages of the source.

Legend:
Assay in all cases: Test A preemergence
Assay type in all cases: in vivo
Kochia (Kochia scoparia) = details: Bassia scoparia, pre-emergence, 240 h; for pest or weed control at 125 g/ha: 125 g ai/ha; for pest or weed control at 500 g/ha: 500 g ai/ha
Procedure, shortened: (§1)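 Visual injury scores from 0, no effect, to 100, complete control, were assigned versus untreated controls roughly 10 d after treatment in the greenhouse. Test chemicals, formulated with surfactant in a non-phytotoxic solvent, were applied to planted seeds as a preemergence soil spray or postemergence to one- to two-leaf plants 2 to 10 cm tall, in loam–sand soil.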

[1] = system: barnyardgrass (Echinochloa crus-galli); details: Echinochloa crus-galli, pre-emergence, 240 h; for pest or weed control at 125 g/ha: 125 g ai/ha; for pest or weed control at 500 g/ha: 500 g ai/ha
Procedure, shortened: as §1

[2] = system: giant foxtail (Setaria faberii); details: Setaria faberi, pre-emergence, 240 h; for pest or weed control at 125 g/ha: 125 g ai/ha; for pest or weed control at 500 g/ha: 500 g ai/ha
Procedure, shortened: as §1

[3] = system: ragweed (common ragweed, Ambrosia elatior); details: Ambrosia artemisiifolia, pre-emergence, 240 h; for pest or weed control at 125 g/ha: 125 g ai/ha; for pest or weed control at 500 g/ha: 500 g ai/ha
Procedure, shortened: as §1

[4] = system: ryegrass, Italian (Italian ryegrass, Lolium multiflorum); details: Lolium multiflorum, pre-emergence, 240 h; for pest or weed control at 125 g/ha: 125 g ai/ha; for pest or weed control at 500 g/ha: 500 g ai/ha
Procedure, shortened: as §1

[5] = Preemergence, visual injury rating after approximately 10 d, read-out: Kochia plant response rating (0 to 100 scale, 0 is no effect, 100 is complete control)
[6] = preemergence, visual injury rating about 10 d after treatment, 0 to 100 scale (0 no effect, 100 complete control), read-out: Kochia plant response rating
[7] = Preemergence, visual injury rating after approximately 10 d, read-out: Barnyardgrass plant response rating (0 to 100 scale, 0 is no effect, 100 is complete control)
[8] = preemergence, visual injury rating about 10 d after treatment, 0 to 100 scale (0 no effect, 100 complete control), read-out: Barnyardgrass plant response rating
[9] = Preemergence, visual injury rating after approximately 10 d, read-out: Foxtail, Giant plant response rating (0 to 100 scale, 0 is no effect, 100 is complete control)
[10] = preemergence, visual injury rating about 10 d after treatment, 0 to 100 scale (0 no effect, 100 complete control), read-out: Foxtail, Giant plant response rating
[11] = Preemergence, visual injury rating after approximately 10 d, read-out: Ragweed plant response rating (0 to 100 scale, 0 is no effect, 100 is complete control)
[12] = preemergence, visual injury rating about 10 d after treatment, 0 to 100 scale (0 no effect, 100 complete control), read-out: Ragweed plant response rating
[13] = Preemergence, visual injury rating after approximately 10 d, read-out: Ryegrass, Italian plant response rating (0 to 100 scale, 0 is no effect, 100 is complete control)
[14] = preemergence, visual injury rating about 10 d after treatment, 0 to 100 scale (0 no effect, 100 complete control), read-out: Ryegrass, Italian plant response rating
[15] = preemergence, 0 to 100 scale where 0 is no effect and 100 is complete control, read-out: Kochia plant response rating
[16] = Preemergence, visual injury vs untreated controls after approximately 10 d, read-out: Kochia plant response rating (0 to 100 scale where 0 is no effect and 100 is complete control)
[17] = preemergence, 0 to 100 scale where 0 is no effect and 100 is complete control, read-out: Barnyardgrass plant response rating
[18] = Preemergence, visual injury vs untreated controls after approximately 10 d, read-out: Barnyardgrass plant response rating (0 to 100 scale where 0 is no effect and 100 is complete control)
[19] = preemergence, 0 to 100 scale where 0 is no effect and 100 is complete control, read-out: Foxtail, Giant plant response rating
[20] = Preemergence, visual injury vs untreated controls after approximately 10 d, read-out: Foxtail, Giant plant response rating (0 to 100 scale where 0 is no effect and 100 is complete control)
[21] = preemergence, 0 to 100 scale where 0 is no effect and 100 is complete control, read-out: Ragweed plant response rating
[22] = Preemergence, visual injury vs untreated controls after approximately 10 d, read-out: Ragweed plant response rating (0 to 100 scale where 0 is no effect and 100 is complete control)
[23] = preemergence, 0 to 100 scale where 0 is no effect and 100 is complete control, read-out: Ryegrass, Italian plant response rating
[24] = Preemergence, visual injury vs untreated controls after approximately 10 d, read-out: Ryegrass, Italian plant response rating (0 to 100 scale where 0 is no effect and 100 is complete control)

Structure (SMILES) | pest or weed control at 125 g/ha (Kochia (Kochia scoparia); [5]) [%] | pest or weed control at 500 g/ha (Kochia (Kochia scoparia); [6]) [%] | pest or weed control at 125 g/ha [1, 7] [%] | pest or weed control at 500 g/ha [1, 8] [%] | pest or weed control at 125 g/ha [2, 9] [%] | pest or weed control at 500 g/ha [2, 10] [%] | pest or weed control at 125 g/ha [3, 11] [%] | pest or weed control at 500 g/ha [3, 12] [%] | pest or weed control at 125 g/ha [4, 13] [%] | pest or weed control at 500 g/ha [4, 14] [%] | pest or weed control at 125 g/ha (Kochia (Kochia scoparia); [15]) [%] | pest or weed control at 500 g/ha (Kochia (Kochia scoparia); [16]) [%] | pest or weed control at 125 g/ha [1, 17] [%] | pest or weed control at 500 g/ha [1, 18] [%] | pest or weed control at 125 g/ha [2, 19] [%] | pest or weed control at 500 g/ha [2, 20] [%] | pest or weed control at 125 g/ha [3, 21] [%] | pest or weed control at 500 g/ha [3, 22] [%] | pest or weed control at 125 g/ha [4, 23] [%] | pest or weed control at 500 g/ha [4, 24] [%]
O=C1NC[C@H](c2ccc3c(c2)CCC3)[C@H]1C(=O)Nc1ccccc1F [Compound 1045] | 0 | 20 | 90 | 90 | 80 | 90 | 0 | 30 | 30 | 70 | – | – | – | – | – | – | – | – | – | –
CN1C[C@H](c2cccc(C3CC3)c2)[C@@H](C(=O)Nc2cccc(F)c2F)C1=O [Compound 816] | – | – | – | – | – | – | – | – | – | – | 60 | 80 | 90 | 90 | 90 | 90 | 20 | 50 | 70 | 80
COc1ccc([C@H]2CN(C)C(=O)[C@@H]2C(=O)Nc2ccccc2SC)cc1C(F)(F)F [Compound 991] | 0 | 60 | 70 | 90 | 90 | 90 | 0 | 30 | 0 | 50 | – | – | – | – | – | – | – | – | – | –
CCOc1cccc([C@H]2CN(C)C(=O)[C@@H]2C(=O)Nc2cccc(F)c2F)c1 [Compound 956] | 90 | 90 | 100 | 100 | 100 | 100 | 20 | 80 | 40 | 90 | – | – | – | – | – | – | – | – | – | –
CCOc1ccc([C@H]2CN(C)C(=O)[C@@H]2C(=O)Nc2cccc(F)c2F)cc1 [Compound 904] | – | – | – | – | – | – | – | – | – | – | 90 | 90 | 90 | 90 | 90 | 90 | 0 | 0 | 0 | 0
Cc1c(F)ccc([C@H]2CN(C)C(=O)[C@@H]2C(=O)Nc2ccc(F)cc2F)c1F [Compound 835] | – | – | – | – | – | – | – | – | – | – | 80 | 90 | 90 | 100 | 90 | 100 | 0 | 0 | 30 | 70
Cc1c(F)ccc([C@H]2CNC(=O)[C@@H]2C(=O)Nc2ccc(F)c(F)c2F)c1F [Compound 830] | – | – | – | – | – | – | – | – | – | – | 70 | 90 | 90 | 90 | 90 | 90 | 0 | 20 | 0 | 30
